# Experiments:
# in vivo = conditions: ip
# mice = test: antihypoxia test: survival duration of mice in normobaric atmosphere of 96% nitrogen and 4% oxygen; assay type: in vivo
# Excerpt: The antihypoxia test measures the survival duration of mice in a normobaric atmosphere consisting of 96% nitrogen and 4% oxygen, at ambient temperature. The mice are considered dead when they stop visible aspiration. The test indicates potential clinical utility in situations of central nervous system hypoxia, such as occurs following stroke, cardiac arrest, and traumatic accidents.
# Estimated LD50 = assay type: in vivo; conditions: ip
structure (smiles),measurement,setting,value
"O=C1N(c2cccc(Cl)c2)N=C2C3CC4CC(C3)CC12C4 [3-(3-Chlorophenyl)-3,4-diazatetracyclo[6.3.1.1^6,10.0^1,5]tridec-4-en-2-one]",TD50,in vivo,25 mg/kg
same,"Antihypoxia, Survial Minutes, Compound","mice; 2.5 mg/kg ip, N=10, ambient temp., control 8.7, P NS (P > 0.05)",8.0 min
same,"Antihypoxia, Survial Minutes, Compound","mice; 5 mg/kg ip, N=10, ambient temp., control 8.7, P <0.05",10.5 min
same,"Antihypoxia, Survial Minutes, Compound","mice; 10 mg/kg ip, N=10, ambient temp., control 6.9, P <0.05",9.5 min
same,"Antihypoxia, Survial Minutes, Compound","mice; 25 mg/kg ip, N=5, ambient temp., control 8.7, P 0.075",13.0 min
same,"Antihypoxia, Survial Minutes, Compound","mice; 25 mg/kg ip, N=10, ambient temp., control 6.9, P <0.05",12.6 min
same,prolongation of survival of mice (in words),"mice; 25 mg/kg, intraperitoneally",prolonged the survival of mice by a very significant margin
same,Estimated LD50,Estimated LD50,> 100 mg/kg
